Reference: the NIST ThermoML archive (doi:10.1016/j.fluid.2014.03.004)

Conditions: 101.33 kPa, Liquid; for mass density: Vibrating tube method; for electrical conductivity: Alternating current cell with electrodes; for viscosity: Falling or rolling sphere viscometry

CCCCC[n+]1ccn(CCCC)c1.O=S(=O)([N-]S(=O)(=O)C(F)(F)F)C(F)(F)F
Conditions | electrical conductivity [S/m] | mass density [kg/m3] | viscosity [mPa·s]
293.15 K | – | 1322.07 | –
298.15 K | 0.164 | 1317.6 | 75.9
303.15 K | – | 1313.16 | 61.5
303.16 K | 0.205 | – | –
313.15 K | 0.303 | 1304.29 | 40.3
323.15 K | 0.427 | 1295.48 | 28
333.15 K | 0.58 | 1286.72 | 20.2
343.15 K | 0.757 | 1278.02 | –
353.15 K | – | 1269.36 | 11.6
353.16 K | 0.96 | – | –

CCCC[n+]1ccn(C2CCCC2)c1.O=S(=O)([N-]S(=O)(=O)C(F)(F)F)C(F)(F)F
Conditions | electrical conductivity [S/m] | mass density [kg/m3] | viscosity [mPa·s]
293.15 K | – | 1383.1 | –
298.15 K | 0.197 | 1378.52 | 85.1
303.15 K | – | 1373.96 | 67.9
303.16 K | 0.246 | – | –
313.15 K | 0.361 | 1364.86 | 44.3
323.15 K | 0.504 | 1355.84 | 30.8
333.15 K | 0.668 | 1346.87 | 22.3
343.15 K | 0.878 | 1337.96 | 16.7
353.15 K | 1.11 | 1329.11 | 13

CCCCn1cc[n+](CCC(C)C)c1.O=S(=O)([N-]S(=O)(=O)C(F)(F)F)C(F)(F)F
Conditions | electrical conductivity [S/m] | mass density [kg/m3] | viscosity [mPa·s]
293.15 K | – | 1322.37 | –
298.15 K | 0.145 | 1318.1 | 93
303.15 K | – | 1313.65 | 73.2
303.16 K | 0.182 | – | –
313.15 K | 0.273 | 1304.82 | 46.5
323.15 K | 0.389 | 1296.03 | 31.5
333.15 K | 0.529 | 1287.3 | 22.4
343.15 K | 0.694 | 1278.62 | –
353.15 K | – | 1269.99 | 12.6
353.16 K | 0.883 | – | –
